Results published in ChEMBL document CHEMBL1135132, “Synthesis of more potent analogues of the acetylcholinesterase inhibitor, huperzine B” (Bioorg Med Chem Lett, 2002).

Target: T1, Acetylcholinesterase (Bos taurus, UniProt P23795)
T1 sequence (P23795 whole entry): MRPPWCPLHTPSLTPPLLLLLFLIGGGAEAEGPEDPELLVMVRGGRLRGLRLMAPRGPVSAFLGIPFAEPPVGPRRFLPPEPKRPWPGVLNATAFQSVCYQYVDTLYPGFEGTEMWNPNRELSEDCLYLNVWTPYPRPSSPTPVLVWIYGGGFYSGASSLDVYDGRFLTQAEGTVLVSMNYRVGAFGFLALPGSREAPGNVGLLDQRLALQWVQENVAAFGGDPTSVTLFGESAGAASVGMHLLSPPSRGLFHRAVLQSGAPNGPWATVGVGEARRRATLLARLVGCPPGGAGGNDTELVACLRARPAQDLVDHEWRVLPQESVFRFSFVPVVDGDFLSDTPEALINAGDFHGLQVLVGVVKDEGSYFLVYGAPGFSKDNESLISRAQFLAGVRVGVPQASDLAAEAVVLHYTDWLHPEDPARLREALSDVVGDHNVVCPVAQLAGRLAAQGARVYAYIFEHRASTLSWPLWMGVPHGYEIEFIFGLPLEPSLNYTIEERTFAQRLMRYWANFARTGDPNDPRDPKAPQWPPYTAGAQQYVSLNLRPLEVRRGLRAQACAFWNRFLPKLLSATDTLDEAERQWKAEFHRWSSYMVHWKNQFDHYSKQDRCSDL
Assay: Inhibitory constant against fetal bovine serum (FBS) acetylcholinesterase

Work on `CC1=CC2Cc3[nH]c(=O)ccc3C3(C1)NCCC(C)=C23` (stereo not given) yielded a Ki of 2.05 µM.

Work on `CCC1=C2C3C=C(C)CC2(NC1)c1ccc(O)nc1C3` (stereo not given) yielded a Ki of 0.4 µM.

`CC1=CC2Cc3nc(O)ccc3C3(C1)NCC(C)=C23` (stereo not given) showed a Ki of 0.22 µM.

`C/C=C1\[C@H]2C=C(C)C[C@]1(N)c1ccc(=O)[nH]c1C2` [HUPERZINE A] was tested, and the Ki was 0.024 µM.

`CC1=C[C@H]2Cc3[nH]c(=O)ccc3[C@]3(C1)NCCC[C@H]23` [HUPERZINE B] showed a Ki of 0.794 µM.
